The text below walks through data of patent US20240327407A1, “NOVEL INHIBITORS OF AUTOTAXIN” (CADILA HEAL THCARE LIMITED, priority 2021, published 2024).

The structures appear in SMILES notation.

The assay deals with ATX (Mus musculus (Mouse), UniProt Q9R1E6). In words: Mice serum ATX inhibitory activity (IC50 determination). Format: biochemical. On the procedure:
ATX Inhibitory activity was determined in a biochemical or whole blood assay as described previously (Bretschneider, T. et al., SLAS Discov 2017, 22, 425). The biochemical reaction consisted of 50 mM Tris (pH 8.0), 3 mM KCl, 1 mM CaCl2, 1 mM Mg Cl2, […] NaCl and 0.1% bovine serum albumin, which was supplemented with 5 nM recombinant rat ATX, 5 μM 18:1 LPC and the test compound (0.1-10 μM). The reaction was stopped at 2 h by the addition of butanol, prior to the RapidFire-MS-based analysis.
The whole blood assay consisted of 45 μL μL heparinized mice/rat whole blood and the test compound (0.12-100 μM). The reaction was stopped after 1 h at 37° C. by addition of 100 μL 40 mM disodium hydrogen phosphate buffer containing 30 mM citric acid (pH 4) and 1 μM 17:0 LPA (internal standard). Afterwards the samples were treated a described above and analysed by LC-MS/MS. The data was analyzed using graph pad prism (v 7.03) to arrive at the half-maximal inhibitory concentrations (IC50) of the test compounds.
For `CC(C)[C@@H](NC(=O)c1cc(C(F)(F)F)ccc1F)C(=O)N1CCC2(CC1)CN(CC1CC1)CC2c1ccc(F)cc1` (stereo partly drawn) [Compound 121, N-((2R)-1-(2-(cyclopropylmethyl)-4-(4-fluorophenyl)-2,8-diazaspiro[4.5]decan-8-yl)-3-methyl-1-oxobutan-2-yl)-2-fluoro-5-(trifluoromethyl)benzamide], the IC50 (as a rule, the concentration at which inhibition is half-maximal) amounted to 84.4 nM.

The molecule `COc1ccc(C2CN(C)CC23CCN(C(=O)[C@H](NC(=O)c2cc(C)ccc2F)C(C)C)CC3)cc1` (stereo partly drawn) [Compound 123, 2-fluoro-N-((2R)-1-(4-(4-methoxyphenyl)-2-methyl-2,8-diazaspiro[4.5]decan-8-yl)-3-methyl-1-oxobutan-2-yl)-5-methylbenzamide] displayed a 50% inhibitory concentration (IC50) of 9.3 nM. This IC50 lies about 9.1-fold lower than the previous one.

Consider `Cc1ccnc(C(=O)N[C@@H](C(=O)N2CCC3(CC2)CN(C)CC3c2ccc(F)cc2)C(C)C)c1` (stereo partly drawn) [Compound 129, N-((2R)-1-(4-(4-fluorophenyl)-2-methyl-2,8-diazaspiro-[4.5]decan-8-yl)-3-methyl-1-oxobutan-2-yl)-4-methylpicolinamide], for which the IC50 came to 3.4 nM.

As for `COC(=O)N1CC(c2ccc(F)cc2)C2(CCN(C(=O)[C@H](NC(=O)c3cc(C(F)(F)F)ccc3F)C(C)C)CC2)C1` (stereo partly drawn) [Compound 130, methyl 8-((2-fluoro-5-(trifluoromethyl)benzoyl)-D-valyl)-4-(4-fluorophenyl)-2,8-diazaspiro[4.5]decane-2-carboxylate], the IC50 amounted to 59.7 nM.

On to `CCOC(=O)N1CC(c2ccc(F)cc2)C2(CCN(C(=O)[C@H](NC(=O)c3cc(C(F)(F)F)ccc3F)C(C)C)CC2)C1` (stereo partly drawn) [Compound 131, ethyl 8-((2-fluoro-5-(trifluoromethyl)benzoyl)-D-valyl)-4-(4-fluorophenyl)-2,8-diazaspiro[4.5]decane-2-carboxylate], for which it took 150 nM to reach half-maximal inhibition (IC50).

For `CC(C)[C@@H](NC(=O)c1cc(C(F)(F)F)ccc1F)C(=O)N1CCC2(CC1)CN(C)CC2c1ccc(C(=O)O)cc1` (stereo partly drawn) [Compound 132, 4-(8-((2-fluoro-5-(trifluoromethyl)benzoyl)-D-valyl)-2-methyl-2,8-diazaspiro[4.5]decan-4-yl)benzoic acid], the IC50 worked out at 1.1 nM. Against the preceding molecule, the IC50 is about 140-fold lower.

`CC(C)[C@@H](NC(=O)c1cc(C(F)(F)F)ccc1F)C(=O)N1CCC2(CC1)CN(C)C[C@@H]2c1ccc(F)cc1` [Compound 133, 2-fluoro-N-((R)-1-((R)-4-(4-fluorophenyl)-2-methyl-2,8-diazaspiro[4.5]decan-8-yl)-3-methyl-1-oxobutan-2-yl)-5-(trifluoromethyl)benzamide] returned an IC50 of 12 nM. Compared with the last molecule, the IC50 is about 11-fold higher.

Regarding `CC(C)[C@@H](NC(=O)c1cc(C(F)(F)F)ccc1F)C(=O)N1CCC2(CC1)CN(C)C[C@H]2c1ccc(F)cc1` [Compound 134, 2-fluoro-N-((R)-1-((S)-4-(4-fluorophenyl)-2-methyl-2,8-diazaspiro[4.5]decan-8-yl)-3-methyl-1-oxobutan-2-yl)-5-(trifluoromethyl)benzamide], 7.8 nM corresponded to half-maximal inhibition (IC50). Against the preceding molecule, the IC50 is about 1.5-fold lower.

Take `Cc1ccc(C2CN(C)CC23CCN(C(=O)[C@H](NC(=O)c2cc(C(F)(F)F)ccc2F)C(C)C)CC3)cc1` (stereo partly drawn) [Compound 136, 2-fluoro-N-((2R)-3-methyl-1-(2-methyl-4-(p-tolyl)-2,8-diazaspiro[4.5]decan-8-yl)-1-oxobutan-2-yl)-5-(trifluoromethyl)benzamide]: half-maximal inhibition (IC50) was put at 2.2 nM.

The molecule `Cc1cc(C)cc(C2CN(C)CC23CCN(C(=O)[C@H](NC(=O)c2cc(C(F)(F)F)ccc2F)C(C)C)CC3)c1` (stereo partly drawn) [Compound 138, N-((2R)-1-(4-(3,5-dimethylphenyl)-2-methyl-2,8-diazaspiro[4.5]decan-8-yl)-3-methyl-1-oxobutan-2-yl)-2-fluoro-5-(trifluoromethyl)benzamide] displayed an IC50 of 40.4 nM.

In turn, `CN1CC(c2ccc(F)cc2)C2(CCN(C(=O)[C@H](NC(=O)c3cc(C(F)(F)F)ccc3F)c3ccccc3)CC2)C1` (stereo partly drawn) [Compound 140, 2-fluoro-N-((1R)-2-(4-(4-fluorophenyl)-2-methyl-2,8-diazaspiro[4.5]decan-8-yl)-2-oxo-1-phenylethyl)-5-(trifluoromethyl)benzamide] had an IC50 of 11.5 nM. Against the preceding molecule, the IC50 is about 3.5-fold lower.

In the case of `CN1CC(c2ccc(F)cc2)C2(CCN(C(=O)[C@H](NC(=O)c3cc(C(F)(F)F)ccc3F)C3CCCCC3)CC2)C1` (stereo partly drawn) [Compound 142, N-((1R)-1-cyclohexyl-2-(4-(4-fluorophenyl)-2-methyl-2,8-diazaspiro[4.5]decan-8-yl)-2-oxoethyl)-2-fluoro-5-(trifluoromethyl)benzamide], the midpoint of inhibition, the IC50, lay at 4.4 nM.

For the molecule `CC(C)C[C@@H](NC(=O)c1cc(C(F)(F)F)ccc1F)C(=O)N1CCC2(CC1)CN(C)CC2c1ccc(F)cc1` (stereo partly drawn) [Compound 147, 2-fluoro-N-((2R)-1-(4-(4-fluorophenyl)-2-methyl-2,8-diazaspiro[4.5]decan-8-yl)-4-methyl-1-oxopentan-2-yl)-5-(trifluoromethyl)benzamide], the half-inhibitory concentration (IC50) was determined as 4.1 nM.

Molecule `CC(C)[C@@H](NC(=O)c1cc(F)ccc1F)C(=O)N1CCC2(CC1)CN(C)CC2c1ccc(F)cc1` (stereo partly drawn) [Compound 149, 2,5-difluoro-N-((2R)-1-(4-(4-fluorophenyl)-2-methyl-2,8-diazaspiro[4.5]decan-8-yl)-3-methyl-1-oxobutan-2-yl)benzamide] yielded a 50% inhibitory concentration (IC50) of 47.3 nM.

The molecule `CC(C)[C@@H](NC(=O)c1cc(Cl)ccc1Cl)C(=O)N1CCC2(CC1)CN(C)CC2c1ccc(F)cc1` (stereo partly drawn) [Compound 151, 2,5-dichloro-N-((2R)-1-(4-(4-fluorophenyl)-2-methyl-2,8-diazaspiro[4.5]decan-8-yl)-3-methyl-1-oxobutan-2-yl)benzamide] showed a half-inhibitory concentration (IC50) of 130 nM. This IC50 lies about 2.7-fold higher than the previous one.

`CC(C)[C@@H](NC(=O)c1nn(C)c2ccccc12)C(=O)N1CCC2(CC1)CN(C)CC2c1ccc(F)cc1` (stereo partly drawn) [Compound 153, N-((2R)-1-(4-(4-fluorophenyl)-2-methyl-2,8-diazaspiro[4.5]decan-8-yl)-3-methyl-1-oxobutan-2-yl)-1-methyl-1H-indazole-3-carboxamide] displayed an IC50 of 48.4 nM.

`Cc1ccnc(C(=O)N[C@@H](C(=O)N2CCC3(CC2)CN(C)CC3c2cccnc2)C(C)C)c1` (stereo partly drawn) [Compound 162, 4-methyl-N-((2R)-3-methyl-1-(2-methyl-4-(pyridin-3-yl)-2,8-diazaspiro[4.5]decan-8-yl)-1-oxobutan-2-yl)picolinamide] displayed an IC50 of 10.2 nM.

Take `CC(C)[C@@H](NC(=O)c1cc(C(F)(F)F)ccc1F)C(=O)N1CCC2(CC1)CC(=O)NCC2c1ccccc1` (stereo partly drawn) [Compound 163, 2-fluoro-N-((2R)-3-methyl-1-oxo-1-(10-oxo-7-phenyl-3,9-diazaspiro[5.5]undecan-3-yl)butan-2-yl)-5-(trifluoromethyl)benzamide]: the IC50 was found to be 3.5 nM.

As for `CC(C)[C@@H](NC(=O)c1cc(C(F)(F)F)ccc1F)C(=O)N1CCC2(CC1)CC(=O)NCC2c1ccc(F)cc1` (stereo partly drawn) [Compound 164, 2-fluoro-N-((2R)-1-(7-(4-fluorophenyl)-10-oxo-3,9-diazaspiro[5.5]undecan-3-yl)-3-methyl-1-oxobutan-2-yl)-5-(trifluoromethyl)benzamide], the IC50 was determined as 6.5 nM.

`CC(C)[C@@H](NC(=O)c1cc(C(F)(F)F)ccc1F)C(=O)N1CCC2(CC1)CC(=O)N(C)CC2c1ccccc1` (stereo partly drawn) [Compound 174, 2-fluoro-N-((2R)-3-methyl-1-(9-methyl-10-oxo-7-phenyl-3,9-diazaspiro[5.5]undecan-3-yl)-1-oxobutan-2-yl)-5-(trifluoromethyl)benzamide] showed an IC50 of 11.2 nM. Compared with the last molecule, the IC50 is about 1.7-fold higher.

In the case of `CC(C)[C@@H](NC(=O)c1cc(C(F)(F)F)ccc1F)C(=O)N1CCC2(CC1)CC(=O)N(C)CC2c1ccc(F)cc1` (stereo partly drawn) [Compound 176, 2-fluoro-N-((2R)-1-(7-(4-fluorophenyl)-9-methyl-10-oxo-3,9-diazaspiro[5.5]undecan-3-yl)-3-methyl-1-oxobutan-2-yl)-5-(trifluoromethyl)benzamide], the IC50 amounted to 7.5 nM.

Regarding `CCN1CC(c2ccc(F)cc2)C2(CCN(C(=O)[C@H](NC(=O)c3cc(C(F)(F)F)ccc3F)C(C)C)CC2)CC1=O` (stereo partly drawn) [Compound 177, N-((2R)-1-(9-ethyl-7-(4-fluorophenyl)-10-oxo-3,9-diazaspiro[5.5]undecan-3-yl)-3-methyl-1-oxobutan-2-yl)-2-fluoro-5-], half-maximal inhibition (IC50) required 17.2 nM.

`CC(C)[C@H](NC(=O)c1cc(C(F)(F)F)ccc1F)C(=O)N1CCC2(CC1)CC(=O)N(C)CC2c1ccccc1` (stereo partly drawn) [Compound 185, 2-fluoro-N-((2S)-3-methyl-1-(9-methyl-10-oxo-7-phenyl-3,9-diazaspiro-[5.5]undecan-3-yl)-1-oxobutan-2-yl)-5-(trifluoromethyl)benzamide] came in with an IC50 of 12 nM.

As for `Cc1ccnc(C(=O)N[C@@H](C(=O)N2CCC3(CC2)CC(=O)N(C)CC3c2ccccc2)C(C)C)c1` (stereo partly drawn) [Compound 194], the IC50 was found to be 15.9 nM.

In turn, `CC(C)[C@@H](NC(=O)c1cc(C(F)(F)F)ccc1F)C(=O)N1CCC2(CCN(C)CC2c2ccccc2)CC1` (stereo partly drawn) [Compound 220, 2-fluoro-N-((2R)-3-methyl-1-(9-methyl-7-phenyl-3,9-diazaspiro[5.5]-undecan-3-yl)-1-oxobutan-2-yl)-5-(trifluoromethyl)benzamide] displayed an IC50 of 9.9 nM. Against the preceding molecule, the IC50 is about 1.6-fold lower.

For the molecule `CC(C)[C@@H](NC(=O)c1cc(C(F)(F)F)ccc1F)C(=O)N1CCC2(CCN(C)CC2c2ccc(F)cc2)CC1` (stereo partly drawn) [Compound 221, 2-fluoro-N-((2R)-1-(7-(4-fluorophenyl)-9-methyl-3,9-diazaspiro[5.5]-undecan-3-yl)-3-methyl-1-oxobutan-2-yl)-5-(trifluoromethyl)benzamide], it took 5.1 nM to reach half-maximal inhibition (IC50). Against the preceding molecule, the IC50 is about 1.9-fold lower.

With `CCc1nc2c(C)cc(N3CCN(CC(=O)N4CC(O)C4)CC3)cn2c1N(C)c1nc(-c2ccc(F)cc2)c(C#N)s1` [GLPG1690], half-maximal inhibition (IC50) required 508 nM.
